# Source: US7728128B2, “Dibenzo[c,h][1,5]naphthyridines and their use as DNA probes” (Institut National de la Sante et de la Recherche Medicate …, priority 2006, dated 2010)
# How the values were obtained:
# plasmid DNA [1] = assay: absorption of free molecules before and after addition of plasmid DNA; format: physicochemical; parameters: Absorption maxima free dye / Absorption maxima DNA bound dye: unit not given here; settings: for Absorption maxima DNA bound dye: after addition of plasmid DNA; for Absorption maxima free dye: free molecule, before addition of plasmid DNA
# Method: (§1) Plasmid dsDNA was purified using a Qiagen Maxiprep kit and used in the supercoiled form for absorption and fluorescence studies. E. coli total RNA was bought from Ambion, dA/dT and dG/dC homopolymers were purchased from Amersham Biosciences. Calf thymus (CT) high-molecular weight DNA and Hoechst 33258 were obtained from Sigma-Aldrich. Ethidium bromide was purchased from Amresco.
# (§2) Spectrometry and fluorimetry were performed using a SpectraMax384 (Molecular Devices) and a Luminescence Spectrometer LS50B (Perkin Elmer). Fluorescence emission of compound I in complex with DNA and RNA was measured in 50 mM Na phosphate buffer, pH 7.2 at room temperature. Before use, total E. coli RNA was heated to 100° C. for 1 min and immediately transferred on ice for 5 min before mixing with compound I solution. All measurements were carried out at room temperature (20-23° C.) in solutions protected from light and incubated for ˜10-15 min after dilution. The units of b/dye and bp/dye are defined as moles of RNA bases or DNA base pairs per mole of dye. Quantum yield was measured using quinine sulphate as standard as described in (Iupac Commission on Photochemistry, EPA Newsletter of November 1986, 21-29) using FLUOROMAX-3 Spex Spectrofluorometer (HORIBA) and UVIKON XL Spectrophotometer (SECOMAM).
# (§3) Although compound I also stains mitotic chromosomes (FIG. 1D), theoretically it was possible that it binds specifically to DNA-associated proteins (for example histones) rather than to nucleic acids. To resolve this issue, the absorption and emission spectra of free compound I before and after addition of dsDNA were recorded. […] Molar extinction coefficient (EC) of free compound I at 391 nm was measured at 10,800 cm^−1 M^−1. In the presence of ds plasmid DNA the absorption peaks of compound I at 373 and 391 nm decreased, and a new peak appears with a maximum at 435 nm (FIG. 1E). An overlay of the absorption spectra in complex with dsDNA at different bp per dye ratios gives a single isosbestic point at 398 nm. Free compound I fluoresces around 438 nm (the exact position of the peak depends on the excitation wavelength). […] At the same time, a new peak evolves with a maximum around 484 nm (FIG. 1F). The exact maximum of fluorescence of compound I/DNA complexes varies insignificantly as a function of the dye/bp ratio and/or base pairs composition of the nucleic acids. […] The quantum yield for compound I (excited at 435 nm) at 5 μM in 50 mM Na-phosphate, pH 7.2, was determined to be 2.7% for free dye and 13.8% in admixture with 50 μM CT DNA.
# (§4) To get a further insight into how the structural properties of compound I contribute to its binding to DNA, the inventors analysed fourteen structural analogues present in the compound library. Although several of these compounds are fluorescent in vivo, this property went undetected in the initial screen most likely due to the latency period before the appearance of the signal (see below). To evaluate the activity of compound I-like molecules three tests were used: (1) in vivo, the inventors incubated human fibroblasts in the presence of the molecules and scored nuclear fluorescence in the microscope; (2 and 3) in vitro, the inventors looked at the absorption and fluorescence of free molecules before and after addition of plasmid DNA. […] With the exception of compound I and analogues 8 and 12, accurate in vitro measurement of the fluorescence intensities was impossible because the emission peaks for the free molecules were too close to that for the DNA-bound dye. This affected the height of the dye/DNA peaks.
# plasmid DNA [2] = assay: fluorescence of free molecules before and after addition of plasmid DNA; format: physicochemical; parameters: Fluorescence maxima free dye / Fluorescence maxima DNA bound dye: unit not given beside the values; settings: for Fluorescence maxima free dye: free molecule, before addition of plasmid DNA; for Fluorescence maxima DNA bound dye: after addition of plasmid DNA
# Method: as §1, §2, §3, §4
# human fibroblasts = assay: in vivo nuclear fluorescence of human fibroblasts incubated with the molecules, scored in the microscope; format: cell-based; parameters: key: Weak: Staining was defined as “weak”, “moderate” or “strong” based on the nuclear signal/background ratio.; Moderate: Staining was defined as “weak”, “moderate” or “strong” based on the nuclear signal/background ratio.; Strong: Staining was defined as “weak”, “moderate” or “strong” based on the nuclear signal/background ratio; settings: 10 μM, 10-60 min (up to 24 hours); Alexa488/FITC filter
# Method: In this study, three different types of cells were used: Xenopus epithelial cell line XL177 (Miller, L. et al., 1977, In Vitro, 13, 557-563) stably transformed with a YFP-α-tubulin expressing construct (pEYFP-Tub, Clontech), mouse fibroblasts, and primary human skin fibroblasts. XL177 cells were grown at 20° C. in 60% Leibowitz-15 medium, supplemented with antibiotics, 10% fetal calf serum (FCS) and 10 mM HEPES, pH 7.2 with addition of 0.7 mg/ml G418. Cells were plated into glass-bottom 96-well plates (Greiner, Germany) and left to spread for 24 hours before being incubated in the presence of the test compounds from the Curie-CNRS small molecule library (at 25 or 50 μM final concentration) for another 20-24 hours. Mouse and human fibroblasts were grown in DMEM with antibiotics and 10% FCS at 37° C. in the presence of 5% CO2. The cells were observed using a Zeiss Axiovert 200M microscope with a 40× oil immersion objective and a standard Alexa488/FITC filter (Omega, XF100-2; Ex475AF40/Em535AF45/Dichroic505). Subsequent experiments were carried out using smaller concentrations of compound I and incubation times as described in the text and figures legends. For the in vivo tests of compound I-like compounds, the molecules were added to cell culture medium at 10 μM final concentration and incubated with cells 10-60 min (up to 24 hours) prior to scoring.
# as §4
Compound,melting point [°C],Absorption maxima DNA bound dye (plasmid DNA [1]),Absorption maxima free dye (plasmid DNA [1]),Fluorescence maxima free dye (plasmid DNA [2]),Fluorescence maxima DNA bound dye (plasmid DNA [2]),Images of the in vivo nuclear staining (human fibroblasts)
"Cc1nc2c3ccccc3cnc2c2ccccc12 [Compound 1, 6-Methyl-dibenzo[c,h][1,5]naphthyridine]",153,–,–,–,–,–
"CCN(CC)CCCNCc1nc2c3ccccc3cnc2c2ccccc12 [Compound 2, N′-Dibenzo[c,h][1,5]naphthyridin-6-ylmethyl-N,N-diethyl-propane-1,3-diamine]",–,365,360,–,–,–
"OCCNCCNc1nc2c3ccccc3cnc2c2ccccc12 [Compound 3, 2-[2-(Dibenzo[c,h][1,5]naphthyridin-6-ylamino)-ethylamino]-ethanol]",100,375/375,375/375,–,–,–
"CN(C)CCNc1nc2c3ccccc3cnc2c2ccccc12 [Compound 4, N′-Dibenzo[c,h][1,5]naphthyridin-6-yl-N,N-dimethyl-ethane-1,3-diamine]",–,375,370,404/ND,–,–
"CN(C)CCNCc1nc2c3ccccc3cnc2c2ccccc12 [Compound 5, N′-dibenzo[c,h][1,5]naphthyridin-6-yl-methyl-N,N-dimethyl-ethane-1,2-diamine]",160,–,–,–,–,–
"CN(C)CCCNCc1nc2c3ccccc3cnc2c2ccccc12 [Compound 6, N′-dibenzo[c,h][1,5]naphthyridin-6-yl-methyl-N,N-dimethyl-propane-1,3-diamine]",45,–,–,–,–,–
"CC(CO)(CO)NCc1nc2c3ccccc3cnc2c2ccccc12 [Compound 7, N′-dibenzo[c,h][1,5]naphthyridin-6-yl-methylamino-2-methyl-propane-1,3-diol]",156,–,365/ND,–,–,–
"COc1ccc2c(c1)c(C)nc1c3ccccc3c(NCCCN(C)C)nc21 [Compound 8, N′-(2-methoxy-12-methyl-dibenzo[c,h][1,5]naphthyridin-6-yl)-N,N-dimethyl-propane-1,3-diamine]",139,425,385,427,468,–
"COc1ccc2c(c1)c(NCCN(C)C)nc1c3ccccc3c(NCCN(C)C)nc21 [Compound 9, N6,N12-bis-(2-dimethylamino-ethyl)-2-methoxy-dibenzo[c,h][1,5]naphthyridin-6,12-diamine]",169,395,375,468,472,Weak
"COc1ccc2c(c1)c(NCCCN(C)C)nc1c3ccccc3c(NCCCN(C)C)nc21 [Compound 10, N6,N12-bis-(3-dimethylamino-propyl)-2-methoxy-dibenzo[c,h][1,5]naphthyridine-6,12-diamine]",155,402,380,478,485,Moderate/ Strong
"COc1ccc2c(c1)c(NCCCN(C)C)nc1c3ccc(OC)cc3c(NCCCN(C)C)nc21 [Compound 11, N,N′-bis-(3-dimethylaminopropyl)-2,8-dimethoxy-dibenzo[c,h][1,5]naphthyridin-6,12-diamine]",216,405,390,484,500,Moderate/ Strong
"COc1ccc2c(c1)c(C)nc1c3ccc(OC)cc3c(NCCN(C)C)nc21 [Compound 12, N′-(2,8-dimethoxy-12-methyl-dibenzo[c,h][1,5]naphthyridin-6-yl)-N,N-dimethyl-ethane-1,3-diamine]",–,435,390,435,475,Weak
"COc1ccc2c(cnc3c4ccc(OC)cc4c(NCCN(C)C)nc23)c1 [Compound 13, N′-(2,8-dimethoxy-dibenzo[c,h][1,5]naphthyridin-6-yl)-N,N-dimethyl-ethane-1,3-diamine]",–,394,390,425,407,Moderate^§
"COc1ccc2c(c1)c(NCCN(C)C)nc1c3ccc(OC)cc3c(NCCN(C)C)nc21 [Compound 14, N,N′-bis-(3-dimethylamino-ethyl)-2,8-dimethoxy-dibenzo[c,h][1,5]naphthyridin-6,12-diamine]",209,400/400,400/400,468,482,Weak
